Each structure is given as a SMILES string.

The target of data set [1] is T1, α-mannosidase from Jack beans (Canavalia ensiformis, UniProt C0HJB3).
T1 construct: purchased
T1 sequence (C0HJB3 1-981): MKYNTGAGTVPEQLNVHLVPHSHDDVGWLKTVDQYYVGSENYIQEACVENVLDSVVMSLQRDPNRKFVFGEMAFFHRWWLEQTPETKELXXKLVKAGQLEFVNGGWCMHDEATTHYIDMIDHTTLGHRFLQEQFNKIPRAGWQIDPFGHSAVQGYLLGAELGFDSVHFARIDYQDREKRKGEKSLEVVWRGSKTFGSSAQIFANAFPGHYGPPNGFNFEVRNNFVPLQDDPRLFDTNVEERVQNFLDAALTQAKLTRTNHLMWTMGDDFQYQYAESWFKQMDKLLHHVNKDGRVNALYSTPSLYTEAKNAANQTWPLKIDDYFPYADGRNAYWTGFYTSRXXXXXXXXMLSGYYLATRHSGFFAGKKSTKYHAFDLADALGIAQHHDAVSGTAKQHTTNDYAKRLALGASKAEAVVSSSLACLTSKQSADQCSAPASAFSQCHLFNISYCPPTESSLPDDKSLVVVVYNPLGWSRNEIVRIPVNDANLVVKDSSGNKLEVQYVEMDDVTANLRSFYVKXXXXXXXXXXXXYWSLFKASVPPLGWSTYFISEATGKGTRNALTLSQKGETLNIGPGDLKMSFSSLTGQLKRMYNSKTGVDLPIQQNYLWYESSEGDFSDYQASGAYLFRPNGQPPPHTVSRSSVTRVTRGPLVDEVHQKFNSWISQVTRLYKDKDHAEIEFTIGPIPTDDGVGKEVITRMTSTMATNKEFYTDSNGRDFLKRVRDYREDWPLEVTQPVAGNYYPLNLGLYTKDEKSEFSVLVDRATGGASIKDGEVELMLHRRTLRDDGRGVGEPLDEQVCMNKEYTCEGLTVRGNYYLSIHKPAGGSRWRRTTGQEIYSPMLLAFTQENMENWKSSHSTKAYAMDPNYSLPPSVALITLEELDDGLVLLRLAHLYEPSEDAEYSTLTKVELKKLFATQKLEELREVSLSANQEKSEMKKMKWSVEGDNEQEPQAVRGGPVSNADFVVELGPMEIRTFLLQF
The data set is described as follows: Glycosidase activity assay: α-mannosidase. The data set is classed as biochemical. The note with it: inhibitors tested at 100 μM.

Data set [2] has as its target T2, α-galactosidase from coffee beans (Coffea arabica, UniProt Q42656).
T2 construct: purchased
As to the kind of experiment: Glycosidase activity assay: α-galactosidase (coffee beans). Particulars: inhibitors tested at 100 μM. The data set is classed as biochemical.

In data set [3] the target is T3, β-galactosidase from human lysate (lysed human lymphocytes) (Homo sapiens, UniProt P16278).
T3 construct: endogenous in cells; host or cells: normal human lymphocytes (lysate, 62 μg/ml)
T3 sequence (P16278 29-677): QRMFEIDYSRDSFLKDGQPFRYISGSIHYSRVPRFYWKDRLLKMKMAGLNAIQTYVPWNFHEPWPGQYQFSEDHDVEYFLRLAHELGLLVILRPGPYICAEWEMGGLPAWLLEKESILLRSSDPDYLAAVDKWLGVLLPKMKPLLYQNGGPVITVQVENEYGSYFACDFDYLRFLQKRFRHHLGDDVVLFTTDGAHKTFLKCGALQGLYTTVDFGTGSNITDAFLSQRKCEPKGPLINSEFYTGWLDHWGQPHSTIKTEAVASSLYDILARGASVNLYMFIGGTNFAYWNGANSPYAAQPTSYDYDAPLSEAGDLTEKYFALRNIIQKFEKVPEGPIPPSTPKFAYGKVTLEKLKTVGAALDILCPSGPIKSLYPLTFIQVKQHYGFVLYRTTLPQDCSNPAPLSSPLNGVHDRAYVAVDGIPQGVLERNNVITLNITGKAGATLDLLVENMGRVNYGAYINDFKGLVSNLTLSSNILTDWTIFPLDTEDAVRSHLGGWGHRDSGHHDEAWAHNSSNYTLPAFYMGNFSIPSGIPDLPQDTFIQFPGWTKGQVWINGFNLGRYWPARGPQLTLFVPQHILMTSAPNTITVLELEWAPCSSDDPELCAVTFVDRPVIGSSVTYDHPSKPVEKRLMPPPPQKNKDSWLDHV
As to the kind of experiment: Glycosidase activity assay: β-galactosidase. The data set is classed as biochemical. Particulars: inhibitors tested at 100 μM.

In data set [4] the test system is Wild-type human lymphocytes (08C0058). As to the kind of experiment: Cytotoxicity assay using human lymphocytes (alamarBlue). The data set is classed as cell-based. The note with it: concentration up to 200 μM; data not shown. As for the experimental part:
Wild-type human lymphocytes (08C0058) were seeded in 96-well plates at a number of 50,000 cells/well. […] All compounds were dissolved in DMSO or H2O and control experiments were performed with DMSO. Cells were incubated at 37° C. in 5% CO2 for 48-72 h. Then, 10λ alamarBlue was added to cells suspended in medium, and the mixture was incubated for additional 3-5 hrs at 37° C. in 5% CO2.
A general note: The colour change of resazurin is a common sign of viable cells or microbes.

Data set [5] concerns the target T4, rh-α-Gal A (recombinant human α-galactosidase A) (Homo sapiens, UniProt P06280).
T4 sequence (P06280 32-429): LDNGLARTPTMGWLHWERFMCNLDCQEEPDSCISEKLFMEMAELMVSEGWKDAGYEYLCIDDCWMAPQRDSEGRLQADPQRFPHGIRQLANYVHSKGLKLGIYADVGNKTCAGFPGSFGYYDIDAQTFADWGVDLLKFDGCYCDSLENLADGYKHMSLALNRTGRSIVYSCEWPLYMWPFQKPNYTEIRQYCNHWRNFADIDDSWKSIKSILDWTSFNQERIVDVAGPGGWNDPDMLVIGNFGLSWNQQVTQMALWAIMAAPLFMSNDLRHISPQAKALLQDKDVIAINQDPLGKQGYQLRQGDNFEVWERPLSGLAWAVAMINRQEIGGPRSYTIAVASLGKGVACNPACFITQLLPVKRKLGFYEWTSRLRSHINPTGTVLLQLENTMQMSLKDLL
As to the kind of experiment: biochemical. Particulars: read-out: Inhibition activity (%) rh-α-Gal A.
Method: Libraries (20 μL) were diluted to give the final concentration of 20 μM, mixed with substrate 4-methylberiilyl α-D-galactopyranoside (20 μL) and recombinant human alpha-galactosidase (10 μL) in pH 4.6 buffer (50 μL), then assay was carried out at 37° C. for 15 min. […] The control group was a mixture of HBTU, DIEA, acid libraries (in total 20 μL), substrate (20 μL), buffer (50 μL) and enzyme (10 μL) excluded the amide products. Blank was a solution of substrate (20 μL) and enzyme (10 μL) in pH 4.6 buffer (70 μL). Inhibition was performed as relative enzyme activity to control.

T2 sequence (Q42656 16-378): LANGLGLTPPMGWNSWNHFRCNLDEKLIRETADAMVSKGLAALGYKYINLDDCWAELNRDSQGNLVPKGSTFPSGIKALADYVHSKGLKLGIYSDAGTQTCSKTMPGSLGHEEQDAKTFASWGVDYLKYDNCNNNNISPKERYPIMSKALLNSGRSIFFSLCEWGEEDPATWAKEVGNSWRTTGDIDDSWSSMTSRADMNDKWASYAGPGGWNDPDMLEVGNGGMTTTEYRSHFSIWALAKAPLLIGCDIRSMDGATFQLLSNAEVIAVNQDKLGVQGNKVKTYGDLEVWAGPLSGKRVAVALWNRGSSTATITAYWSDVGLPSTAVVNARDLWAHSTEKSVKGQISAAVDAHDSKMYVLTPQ

Consider `O=C(CCCCC1CCCCC1)NC[C@H]1N[C@H](CO)[C@H](O)[C@@H]1O` [Compound 33], for which the inhibition – broadly, the drop in the measured response relative to a control, in per cent – at 100 µM in data set [1] came out at 36%; in data set [2] it was 94%; in data set [5], 97%. Besides, in data set [3], the “Inhibition activity (%) β-galactosidase” value was “No inhibition”. Also, the “toxic effect in cell culture” value in data set [4] is listed as “no toxic effect”.

Source of the values: patent US10995067B2, “Treatment of Fabry disease” (Academia Sinica, priority 2016, dated 2021).
